In patent publication US10456359B2, “Synergistic beverage composition” (Harsha Chigurupati, priority 2015, dated 2019):
Where a SMILES comes first, the peptide text is derived from it.

Tests used:
[1] = system: interleukin-12 (IL-12) from brain homogenate; experiment: Hangover study, IL-12 from brain homogenate, alcohol 1 day; format: in vivo, Wistar albino rats; design: concentration or dose not given beside the values; conditions: 1 Day alcohol
[2] = system: interleukin-12 (IL-12); experiment: CNS/immunology study, serum IL-12, alcohol 5 days; format: in vivo, Wistar albino rats; conditions: Pro: Protection (%), rats, alcohol 5 Day
From the text: (§1) For hangover, 1 day immunology parameter were considered and for CNS, 5 days immunology parameter were considered.

[3] = system: alkaline phosphatase (ALP); conditions: Pro: Protection (%); rats, alcohol 4 gm/kg/day p.o., 5 days, serum
Procedure: The levels of alanine aminotransferase (ALT), aspartate aminotransferase (AST) and alkaline phosphatise (ALP) in serum were measured using commercial spectrophotometric kit bought from Span Diagnostic Ltd. (www.span.in) according to the manufacturer's protocols.
12-16 hours after the last dose, the animals were sacrificed and blood samples were collected for estimation of biochemical parameters.
Male Wistar albino rats weighing 150-200 g were procured and randomly divided into groups consisting of twelve (12) animals in each group. Hepatoprotection was induced by alcohol in rats by oral administration of 30% alcohol (4 gm/kg/day, p.o.) for 5 days and this group served as the negative control and treated groups received different formulation.
All drug solutions were prepared in 40% aqueous alcohol, adjusting the pH in the range of 5.0-10.0 for evaluation of alcohol induced Hepatoprotection. This solution was further diluted with distilled water to obtain 30% aqueous alcoholic solution and administered orally by gavage to different rats group of step (a).

[4] = system: Monocyte chemoattractant protein-1 (MCP-1); experiment: Hangover study, serum MCP-1, alcohol 1 day; format: in vivo, Wistar albino rats; design: concentration or dose not given beside the values; conditions: 1 Day alcohol
Procedure: (§2) The lowest detectable limit of the kit is 0.1 ng/ml (Wang L, Li Y, Chen J, et al. “Ischemic Cerebral Tissue and MCP-1 Enhance Rat Bone Marrow Stromal Cell Migration in Interface Culture.” Experimental Hematology, 30, 7, 2002, 831-836).
as §1

[5] = system: serum C-reactive protein (CRP); experiment: CNS/immunology study, serum CRP, alcohol 5 days; format: in vivo, Wistar albino rats; conditions: Pro: Protection (%), rats, alcohol 5 Day
From the text: as §1

[6] = system: acetylcholinesterase activity of brain homogenate; conditions: Pro: Protection (%), rats, alcohol 5 Day
Procedure: (§4) We have included this parameter to evaluate cognition and memory deficit in experimental animals.
(§5) Experimental Design • (b) Animal study model 1: Saline/Alcohol (4.0 gm/kg/day, p.o.)/Formulation with alcohol (4.0 gm/kg/day, p.o.) were administered (fed orally by orogastric cannula) for one day. 12-16 hours after the dose the animals were sacrificed and blood samples will be collected for estimation of biochemical parameters. Whole brain without cerebellum were dissected out, 10% homogenate was prepared with 0.1 M PB (pH 7.4). The homogenate solution was centrifuged at 10000 rpm for 20 minutes at 4° C. and the supernatant was used for estimation of acetylcholinesterase activity, which was estimated by Ellman's method (Ellman G L et al. A new and rapid colorimetric determination of acetylcholinesterase activity. Biochem Pharmacol, 1961, 7:88.) • (c) Animal study model 2: Saline/Alcohol (4.0 gm/kg/day, p.o.)/Formulation with alcohol (4.0 gm/kg/day, p.o.) were administered (fed orally by orogastric cannula) for 5 consecutive days. 12-16 hours after the last dose, the animals were sacrificed and blood samples were collected for estimation of biochemical parameters. Whole brain without cerebellum were dissected out, 10% homogenate was prepared with 0.1 M PB (pH 7.4). The homogenate solution was centrifuged at 10000 rpm for 20 minutes at 4° C. and the supernatant was used for estimation of acetylcholinesterase activity. […] The latency period of day 5 (before alcohol) was compared with post alcohol latency period (Vorhees C V and Williams M T. Morris water maze: procedures for assessing spatial and related forms of learning and memory, Nat Protoc, 2006, 1(2): 848-58.). % Protection Calculated in Above Experiments: % Protection=1−[(T−NS)/(AL−NS)]×100 T=Mean value of drug treated, NS=Mean value of normal control, AL=Mean value of alcohol alone.
(§6) Male Wistar albino rats weighing 150-200 g were procured and randomly divided into groups consisting of twelve (12) animals in each group. Alcohol induced hangover and CNS related biochemical changes and memory function in rats by oral administration of 30% alcohol (4 gm/kg/day, p.o.) for 1 and 5 days and this group served as the negative control and treated groups received different formulation.
(§7) All drug solutions were prepared in 40% aqueous alcohol, adjusting the pH in the range of 5.0-10.0 for evaluation of alcohol induced hangover and CNS related biochemical parameters.

[7] = system: aspartate aminotransferase (AST); experiment: Hepatoprotection study, serum AST, alcohol 5 days; format: in vivo, Wistar albino rats; conditions: Pro: Protection (%), rats, alcohol 4 gm/kg/day p.o.
[8] = system: serum alanine aminotransferase (ALT); experiment: Hepatoprotection study, serum ALT, alcohol 5 days; format: in vivo, Wistar albino rats; conditions: Pro: Protection (%), rats, alcohol 4 gm/kg/day p.o.
[9] = system: Monocyte chemoattractant protein-1 (MCP-1) from brain homogenate; experiment: Hangover study, MCP-1 from brain homogenate, alcohol 1 day; format: in vivo, Wistar albino rats; conditions: 1 Day alcohol
[10] = system: Monocyte chemoattractant protein-1 (MCP-1) from brain homogenate; experiment: CNS study, MCP-1 from brain homogenate, alcohol 5 days; format: in vivo, Wistar albino rats; conditions: rats, alcohol 5 Day; for Brain MCP-1 Pro: Pro: Protection (%)
[11] = system: serum C-reactive protein (CRP); experiment: Hangover study, serum CRP, alcohol 1 day; format: in vivo, Wistar albino rats; conditions: 1 Day alcohol
From the text: as §1

[12] = system: Interferon gamma (IFN-γ); experiment: CNS/immunology study, serum IFN-gamma, alcohol 5 days; format: in vivo, Wistar albino rats; conditions: Pro: Protection (%), rats, alcohol 5 Day
From the text: (§3) Distilled ethanol was obtained from Bengal Chemicals, West Bengal, India. Biochemical kits like AST, ALT, ALP and total protein were obtained from Span Diagnostics Ltd. Surat, India. Rat IL-12 ELISA kit (Elabscience Biotechnology Co. Ltd, WuHan, P.R.C.), Rat CRP ELISA kit (BD Biosciences, USA), Rat IFN-gamma ELISA kit (Biolegend, San Diego, Calif.) Rat MCP-1 ELISA kit (Elabscience Biotechnology Co. Ltd, WuHan, P.R.C.). All the chemicals used in the present study were of analytical grade and obtained from the following companies: Sigma (St. Louis, Mo., USA), Merck (Mumbai, India), S D fine chemicals (Mumbai, India) and Qualigen (Mumbai, India).
as §1

[13] = system: interleukin-12 (IL-12); experiment: Hangover study, serum IL-12, alcohol 1 day; format: in vivo, Wistar albino rats; design: concentration or dose not given beside the values; conditions: 1 Day alcohol
From the text: as §1

[14] = system: Monocyte chemoattractant protein-1 (MCP-1); experiment: CNS/immunology study, serum MCP-1, alcohol 5 days; format: in vivo, Wistar albino rats; conditions: Pro: Protection (%), rats, alcohol 5 Day
Procedure: as §2, §1

[15] = system: interleukin-12 (IL-12) from brain homogenate; experiment: CNS study, IL-12 from brain homogenate, alcohol 5 days; format: in vivo, Wistar albino rats; conditions: rats, alcohol 5 Day; for Brain IL12 Pro: Pro: Protection (%)
[16] = system: acetylcholinesterase activity of brain homogenate; conditions: Hangover study, 1 Day alcohol; ingredient amounts in mass concentration (%)
Procedure: as §4, §5, §6, §7

[17] = system: spatial learning and memory; experiment: Morris water maze task (escape latency), alcohol 5 days; format: in vivo, Wistar albino rats; conditions: Pro: Protection (%), rats, alcohol 5 day
[18] = system: Interferon gamma (IFN-γ); experiment: Hangover study, serum IFN-gamma, alcohol 1 day; format: in vivo, Wistar albino rats; design: concentration or dose not given beside the values; conditions: 1 Day alcohol
From the text: as §3, §1

SMILES | Brain IL12 Pro (Protection) [1] [%] | IL12 Pro [2] [%] | ALP Pro [3] [%] | MCP-1 Pro (Protection) [4] [%] | CRP Pro [5] [%] | ACHe Pro [6] [%] | AST Pro [7] [%] | ALT Pro [8] [%] | Brain MCP-1 Pro (Protection) [9] [%] | Brain MCP-1 Pro [10] [%] | CRP Pro (Protection) [11] [%] | IFN-Gamma Pro [12] [%] | IL12 Pro (Protection) [13] [%] | MCP-1 Pro [14] [%] | Brain IL12 Pro [15] [%] | ACHe Pro (Protection) [16] [%] | WATER MAZE Pro [17] [%] | IFN-Gamma Pro (Protection) [18] [%] | Brain MCP-1 Syn ([10]; Syn: Synergism (%)) [%] | Brain IL12 Syn ([15]; Syn: Synergism (%)) [%]
CC1(C(=O)O)CCC2(C)CCC3(C)C(=CC(=O)C4C5(C)CCC(OC6OC(C(=O)O)C(O)C(O)C6OC6OC(C(=O)O)C(O)C(O)C6O)C(C)(C)C5CCC43C)C2C1 (stereo not drawn) [0.1 GA, 18β-GA] | 3.16 | 5.85 | 6.29 | 3.79 | 5.19 | 9.4 | 8.25 | 4.24 | 4.25 | 3.58 | 5.15 | 0 | 2.6 | 0 | 3.66 | 11.79 | 5.32 | 2.58 |  | 
C/C=C/C=C/C(=O)[O-].[K+] [0.1 KS, Potassium Sorbate] | 0.24 | 1.2 | 0 | 0.16 | 0.87 | 0 | 0.09 | 0.11 | 0.19 | 0 | 1.2 | 0 | 0.89 | 1.04 | 0.00 | 0.24 | 1.31 | 0.11 | 0 | 0
CC1(C(=O)O)CCC2(C)CCC3(C)C(=CC(=O)C4C5(C)CCC(OC6OC(C(=O)O)C(O)C(O)C6OC6OC(C(=O)O)C(O)C(O)C6O)C(C)(C)C5CCC43C)C2C1 (stereo not drawn) [0.3 GA, 18β-GA] |  | 10.07 | 11.68 | 13.97 | 15.63 | 21.5 | 20.46 | 25.62 | 18.92 | 21.36 | 11.21 | 23.18 |  | 15.46 | 15.63 |  | 15.57 | 7.85 |  | 
OC[C@@H](O)[C@@H](O)[C@H](O)[C@H](O)CO [0.5 Man, D-Mannitol] | 4.25 |  | 4.78 | 3.27 |  | 5.22 | 4.28 | 3.59 |  | 2.75 |  |  | 3.59 |  |  | 4.12 | 4.95 | 3.51 |  | 
C[C@H](N)C(=O)N[C@@H](CCC(N)=O)C(=O)O [1 DP, L-Ala-L-Gln] (H-Ala-Gln-OH) | 10.53 | 16.44 | 18.96 | 20.74 | 6.33 | 3.91 | 15.68 | 13.4 | 3.58 |  | 31.3 | 8.89 | 6.13 | 7.14 | 10.30 |  | 22.38 | 12.25 |  | 
OC[C@@H](O)[C@@H](O)[C@H](O)[C@H](O)CO [1.2 Man, D-Mannitol] | 12.28 |  | 24.48 | 11.85 |  | 17.58 | 22 | 23.19 | 21.28 | 14.28 | 8.68 |  | 13.45 |  | 13.92 | 21.54 | 12.84 | 7.79 |  | 
C[C@H](N)C(=O)N[C@@H](CCC(N)=O)C(=O)O [1.5 DP, L-Ala-L-Gln] (H-Ala-Gln-OH) | 18.26 | 22.53 | 22.35 | 11.04 | 11.97 | 15.29 | 20.25 | 14.68 | 14.96 |  | 26.13 |  | 20.11 | 11.01 |  | 21.14 | 24.53 | 20.58 |  | 
C[C@H](N)C(=O)N[C@@H](CCC(N)=O)C(=O)O [1.25 DP, L-Ala-L-Gln] (H-Ala-Gln-OH) | 7.02 | 22.71 | 22.73 | 14.22 |  | 9.7 | 22 | 17.59 | 17.02 |  | 10.61 | 13.09 |  | 8.14 | 15.82 | 20.33 | 10.36 | 10.44 |  | 
C[C@H](N)C(=O)N[C@@H](CCC(N)=O)C(=O)O [2.0 DP, L-Ala-L-Gln] (H-Ala-Gln-OH) | 26.34 | 29.54 | 28.68 | 21.43 | 27.24 | 36.85 | 30.72 | 38.83 | 23.54 | 24.36 | 33.14 | 22.91 | 31.9 | 19.16 |  | 31.79 | 50.36 | 25.96 |  | 
OC[C@@H](O)[C@@H](O)[C@H](O)[C@H](O)CO [2.5 Man, D-Mannitol] | 23.16 |  | 34.75 |  |  | 30.61 | 42.57 | 38.4 | 27.66 | 24.65 | 18.33 |  | 21.4 |  | 28.33 | 45.12 | 25.4 | 18.22 |  | 
C[C@H](N)C(=O)N[C@@H](CCC(N)=O)C(=O)O [3 DP, L-Ala-L-Gln] (H-Ala-Gln-OH) |  | 32.6 | 29.08 | 29.69 | 27.59 | 59.25 | 32.95 | 29.7 |  |  | 41.82 | 30.24 | 30.98 | 13.51 | 27.57 | 59.25 | 59.17 | 31.08 |  | 
